Measurements taken from US20230107642A1 (Erasca, Inc., priority 2020, published 2023).

Target: T1, K-Ras G12C (Homo sapiens, UniProt P01116, G12C)
T1 construct: This protein contained 188 amino acids in total, including an N-terminal 6-Histidine tag; made in house; host or cells: E. coli BL21
Test: CAF assay (% CAF; method in Example 7, not in this part)
Assay type: binding
Details: 10 uM compound, 1 h incubation

Row | SMILES | % CAF @ 10 uM, 1h
1 | C=CC(=O)N1C[C@H](C)N(c2nc(=O)n3c4c(c(-c5cc(Cl)c(F)cc5F)c(C(F)(F)F)cc24)SC[C@@H]3CN2CCN(CC(F)F)CC2)C[C@H]1C (atropisomer, axis not shown) [Example 557, (3S,10S)-7-((2S,5R)-4-acryloyl-2,5-dimethylpiperazin-1-yl)-10-(5-chloro-2,4-difluorophenyl)-3-((4-(2,2-difluoroethyl)piperazin-1-yl)methyl)-9-(trifluoromethyl)-2H-[1,4]thiazino[2,3,4-ij]quinazolin-5(3H)-one] | 21.2%
2 | C=CC(=O)N1[C@H](C)CN(c2nc(=O)n3c4c(c(-c5cc(Cl)c(F)cc5F)c(C(F)(F)F)cc24)SC[C@@H]3COC)C[C@@H]1C (atropisomer, axis not shown) [Example 563, (3S,10R)-7-((3S,5R)-4-acryloyl-3,5-dimethylpiperazin-1-yl)-10-(5-chloro-2,4-difluorophenyl)-3-(methoxymethyl)-9-(trifluoromethyl)-2,3-dihydro-5H-[1,4]thiazino[2,3,4-ij]quinazolin-5-one] | 93.9%
3 | C=CC(=O)N1[C@H](C)CN(c2nc(=O)n3c4c(c(-c5cc(Cl)c(F)cc5F)c(C(F)(F)F)cc24)SC[C@@H]3COC)C[C@@H]1C (atropisomer, axis not shown) [Example 564, (3S,10S)-7-((3S,5R)-4-acryloyl-3,5-dimethylpiperazin-1-yl)-10-(5-chloro-2,4-difluorophenyl)-3-(methoxymethyl)-9-(trifluoromethyl)-2,3-dihydro-5H-[1,4]thiazino[2,3,4-ij]quinazolin-5-one] | 80.8%
4 | C=CC(=O)N1[C@H](C)CN(c2nc(=O)n3c4c(c(-c5cc(Cl)c(F)cc5F)c(C(F)(F)F)cc24)SC[C@@H]3CN2CCC3(CC2)COC3)C[C@@H]1C (atropisomer, axis not shown) [Example 565, (3S,10S)-3-((2-oxa-7-azaspiro[3.5]nonan-7-yl)methyl)-7-((3S,5R)-4-acryloyl-3,5-dimethylpiperazin-1-yl)-10-(5-chloro-2,4-difluorophenyl)-9-(trifluoromethyl)-2,3-dihydro-5H-[1,4]thiazino[2,3,4-ij]quinazolin-5-one] | 48.3%
5 | C=CC(=O)N1[C@H](C)CN(c2nc(=O)n3c4c(c(-c5cc(Cl)c(F)cc5F)c(C(F)(F)F)cc24)SC[C@@H]3CN2CCC3(CC2)COC3)C[C@@H]1C (atropisomer, axis not shown) [Example 566, (3S,10R)-3-((2-oxa-7-azaspiro[3.5]nonan-7-yl)methyl)-7-((3S,5R)-4-acryloyl-3,5-dimethylpiperazin-1-yl)-10-(5-chloro-2,4-difluorophenyl)-9-(trifluoromethyl)-2,3-dihydro-5H-[1,4]thiazino[2,3,4-ij]quinazolin-5-one] | 77.7%
6 | C=CC(=O)N1C[C@H](C)N(c2nc(=O)n3c4c(c(-c5cccc6cnn(C)c56)c(Cl)cc24)SC[C@@H]3CN2CCN(CC(F)F)CC2)C[C@H]1C (atropisomer, axis not shown) [Example 569, (3S,10R)-7-((2S,5R)-4-acryloyl-2,5-dimethylpiperazin-1-yl)-9-chloro-3-((4-(2,2-difluoroethyl)piperazin-1-yl)methyl)-10-(1-methyl-1H-indazol-7-yl)-2,3-dihydro-5H-[1,4]thiazino[2,3,4-ij]quinazolin-5-one] | 93.4%
7 | C=CC(=O)N1C[C@H](C)N(c2nc(=O)n3c4c(c(-c5cccc6cnn(C)c56)c(Cl)cc24)SC[C@@H]3CN2CCN(CC(F)F)CC2)C[C@H]1C (atropisomer, axis not shown) [Example 570, (3S,10S)-7-((2S,5R)-4-acryloyl-2,5-dimethylpiperazin-1-yl)-9-chloro-3-((4-(2,2-difluoroethyl)piperazin-1-yl)methyl)-10-(1-methyl-1H-indazol-7-yl)-2,3-dihydro-5H-[1,4]thiazino[2,3,4-ij]quinazolin-5-one] | 0%
